{"source": "patent US7338948B2", "about": "“Use of quetiapine” (AstraZeneca AB, priority 2000, dated 2008)", "key": {"[1]": {"system": "Conduct Disorder, Childhood Onset, Moderate Severity and Attention Deficit Hyperactivity Disorder (ADHD), Combined Type", "test": "Case report: patient with Conduct Disorder and ADHD treated with successive drugs", "source_text": "A person was diagnosed with ‘Conduct Disorder, Childhood Onset, Moderate Severity’ and ‘Attention Deficit Hyperactivity Disorder (ADHD), Combined Type’ (DSM-IV diagnostic criteria)."}, "[2]": {"test": "Drug level printed in brackets after the dose in the case report", "settings": "valproate 750 mg", "description": "In addition, they were given lithium at gradually increasing doses up to 1125 mg/day (1.7 ng/mL)."}}, "data": [{"smiles": "OCCOCCN1CCN(C2=Nc3ccccc3Sc3ccccc32)CC1", "note": "[Quetiapine, 11-(4-[2-(2-hydroxyethoxy)ethyl]-1-piperazinyl)dibenzo[b,f][1.4]thiazepine]", "values": [{"measurement": "clinical response after 90 days", "setting": "[1]; after 90 days on quetiapine 1000 mg/day and amphetamine-based product 45 mg/day", "value": "complete resolution of previous symptoms"}, {"measurement": "clinical response (psychiatric symptoms)", "setting": "[1]; quetiapine 1000 mg/day (400 mg morning, 600 mg evening) with amphetamine-based product 45 mg/day", "value": "dramatic reduction of their psychiatric symptoms"}, {"measurement": "clinical response (aggression)", "setting": "[1]; quetiapine increased from 50 to 300 mg/day, with amphetamine-based product 60 mg/day", "value": "continued to demonstrate aggression"}]}, {"smiles": "CCCC(CCC)C(=O)O", "note": "[Valproate]", "values": [{"measurement": "drug level", "setting": "[2]", "value": 115, "unit": "ng/mL"}]}, {"smiles": "COC(=O)C(c1ccccc1)C1CCCCN1", "note": "(centres unmarked) [methylphenidate]", "values": [{"measurement": "clinical response (earlier treatment)", "setting": "[1]; methylphenidate taken before the amphetamine-based product and imipramine", "value": "eventually became ineffective"}]}]}
